Active and inactive are the calls of the source. The rule behind the calls is not given here.
Tests used:
[1] = molecular target: T1, Peroxisome proliferator-activated receptor delta (Mus musculus, UniProt P35396); experiment: Agonist activity at mouse PPARdelta in Cos7 cells transfected with pBIND and pGL4.35 Gal4 UAS Luc reporter plasmid by measuring luciferase activity incubated for 16 hrs by luciferase reporter gene assay
T1 sequence (P35396 whole entry): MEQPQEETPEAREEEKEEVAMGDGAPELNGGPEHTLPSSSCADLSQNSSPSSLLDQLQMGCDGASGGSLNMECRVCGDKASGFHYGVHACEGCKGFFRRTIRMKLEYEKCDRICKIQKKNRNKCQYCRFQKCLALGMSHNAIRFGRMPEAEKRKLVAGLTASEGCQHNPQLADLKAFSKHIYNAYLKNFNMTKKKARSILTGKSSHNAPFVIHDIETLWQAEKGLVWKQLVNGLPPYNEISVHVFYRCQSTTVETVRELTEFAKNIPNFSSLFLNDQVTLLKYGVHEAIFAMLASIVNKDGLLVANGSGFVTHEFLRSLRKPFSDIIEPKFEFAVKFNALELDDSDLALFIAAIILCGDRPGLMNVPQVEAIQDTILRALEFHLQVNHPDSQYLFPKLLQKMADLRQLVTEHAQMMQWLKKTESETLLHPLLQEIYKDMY

[2] = tested on: HepG2; experiment: Agonist activity against PPARalpha/delta (unknown origin) assessed as upregulation of ACADVL mRNA expression in human HepG2 cells incubated for 12 hrs by RT-PCR analysis; format: cell-based; settings: filed as agonist, dose 8-200 nM
[3] = tested on: Mus musculus; experiment: In vivo agonist activity at PPARalpha/delta assessed as upregulation of Cdkn1a mRNA expression in C57BL/6Nifdc mouse liver at 10 mg/kg, po for 4 days; format: functional, organism-based; settings: time 4.0 day
[4] = tested on: Mus musculus; experiment: In vivo agonist activity at PPARalpha/delta assessed as upregulation of Kit11 mRNA expression in C57BL/6Nifdc mouse liver at 10 mg/kg, po for 4 days; format: functional, organism-based; settings: time 4.0 day
[5] = tested on: Mus musculus; experiment: In vivo agonist activity at PPARalpha/delta assessed as upregulation of Gpd1 mRNA expression in C57BL/6Nifdc mouse liver at 10 mg/kg, po for 4 days; format: functional, organism-based; settings: time 4.0 day
[6] = tested on: Mus musculus; experiment: In vivo agonist activity at PPARalpha/delta assessed as upregulation of -Ehhadh mRNA expression in C57BL/6Nifdc mouse liver at 10 mg/kg, po for 4 days; format: functional, organism-based; settings: time 4.0 day
[7] = tested on: Mus musculus; experiment: In vivo agonist activity against PPARalpha/delta assessed as upregulation of Pdk4 mRNA expression in C57BL/6Nifdc mouse liver at 10 mg/kg, po for 4 days; format: functional, organism-based; settings: time 4.0 day
[8] = tested on: Mus musculus; experiment: In vivo agonist activity against PPARalpha/delta assessed as upregulation of Pex11a mRNA expression in C57BL/6Nifdc mouse skeletal muscle at 10 mg/kg, po for 4 days; format: functional, organism-based; settings: time 4.0 day
[9] = tested on: Mus musculus; experiment: Anti-fibrosis effect in HF-CDAA-induced nonalcoholic steatohepatitis C57BL/6JNifdc mouse model assessed as expression of Acta2 marker at 10 mg/kg, po after 20 hrs by Western blot analysis; format: functional, organism-based
[10] = molecular target: T2, Peroxisome proliferator-activated receptor alpha (Homo sapiens) (UniProt Q07869); settings: filed as agonist, dose 10.0 nM
T2 sequence (whole entry): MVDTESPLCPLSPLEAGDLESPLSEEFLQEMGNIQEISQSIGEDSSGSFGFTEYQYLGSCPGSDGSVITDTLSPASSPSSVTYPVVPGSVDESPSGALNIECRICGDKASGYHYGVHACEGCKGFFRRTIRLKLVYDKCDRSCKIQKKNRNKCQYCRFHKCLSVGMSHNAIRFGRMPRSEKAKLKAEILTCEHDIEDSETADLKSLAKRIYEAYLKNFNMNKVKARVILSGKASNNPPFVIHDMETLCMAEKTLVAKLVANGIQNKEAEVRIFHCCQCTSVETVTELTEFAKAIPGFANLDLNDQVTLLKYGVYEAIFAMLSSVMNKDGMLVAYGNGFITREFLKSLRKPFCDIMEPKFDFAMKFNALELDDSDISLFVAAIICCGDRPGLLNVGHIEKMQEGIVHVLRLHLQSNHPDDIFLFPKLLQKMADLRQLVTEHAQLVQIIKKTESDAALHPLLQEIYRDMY
Description: Agonist activity at PPARalpha (unknown origin) assessed as maximal activation at 10 nM relative to GW7647

With `Cc1cc(Cn2ncn(-c3ccc(OC(F)(F)F)cc3)c2=O)cc(C)c1OC(C)(C)C(=O)O` the EC50 [1] was 19.7 nM, the Activity [2] was “Dose-Dependent Effect” and the Activity [3] was “Active”. The Activity [4] was “Active”, the Activity [5] was “Active” and the Activity [6] was “Active”. The Activity [7] was “Active”, the Activity [8] was “Active” and the Activity [9] was “Active”. For the same molecule, the Emax [10] was 110%.
